# Tests used:
# [1] = biological target: human FPR1 (Homo sapiens (Human), UniProt P21462); test: FPR1 cyclic adenosine monophosphate (cAMP) assay; assay type: cell-based; conditions: CHO cells overexpressing human FPR1; forskolin 10 µM; inhibition of cAMP production; read-out: hFPR1 cAMP EC50
# Method in brief: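 CHO cells overexpressing human FPR1 (4,000 cells/well) stimulated with 10 µM forskolin plus 200 µM IBMX in the presence of compound (0.020 nM–100 µM, 1% DMSO), 30 min at room temperature. Intracellular cAMP measured by HTRF. Inhibition of cAMP production fitted to a 4-parameter logistic equation.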
# [2] = biological target: human FPR2 (Homo sapiens (Human), UniProt P25090); test: FPR2 cyclic adenosine monophosphate (cAMP) assay; assay type: cell-based; conditions: CHO cells overexpressing human FPR2; forskolin 5 µM; inhibition of cAMP production; read-out: hFPR2 cAMP2 EC50
# Sequence of human FPR2 (P25090 whole entry): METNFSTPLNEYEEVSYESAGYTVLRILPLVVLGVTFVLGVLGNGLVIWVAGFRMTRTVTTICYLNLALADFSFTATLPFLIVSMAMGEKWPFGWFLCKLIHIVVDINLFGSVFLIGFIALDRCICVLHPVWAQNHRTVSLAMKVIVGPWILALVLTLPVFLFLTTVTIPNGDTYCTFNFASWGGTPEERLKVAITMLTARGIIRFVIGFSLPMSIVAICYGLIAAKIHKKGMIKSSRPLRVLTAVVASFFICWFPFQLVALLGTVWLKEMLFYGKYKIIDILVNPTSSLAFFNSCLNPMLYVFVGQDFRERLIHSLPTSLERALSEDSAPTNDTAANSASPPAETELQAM
# Method in brief: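 CHO cells overexpressing human FPR2 (2,000/well) incubated 30 min at room temperature with compound (0.020 nM–100 µM, 1% DMSO), 5 µM forskolin and 200 µM IBMX.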
# Sequence of human FPR1 (P21462 whole entry): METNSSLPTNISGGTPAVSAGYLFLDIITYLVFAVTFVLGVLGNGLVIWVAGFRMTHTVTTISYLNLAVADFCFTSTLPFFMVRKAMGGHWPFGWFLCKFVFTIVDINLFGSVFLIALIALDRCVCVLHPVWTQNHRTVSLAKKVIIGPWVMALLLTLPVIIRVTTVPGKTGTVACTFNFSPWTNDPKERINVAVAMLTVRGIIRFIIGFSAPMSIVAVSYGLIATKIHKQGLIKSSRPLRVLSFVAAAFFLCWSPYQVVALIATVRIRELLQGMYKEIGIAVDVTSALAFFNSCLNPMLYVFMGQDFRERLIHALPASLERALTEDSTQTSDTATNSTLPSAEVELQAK
Structure (SMILES),EC50 [1],EC50 [2]
COc1cc(F)c([C@@H]2CN(c3c(C)c4c(n(CCO)c3=O)CCCC4)C(=O)[C@H]2NC(=O)c2ccc(Cl)cc2)c(F)c1 [Example 607],30 nM,13.3 nM
COc1cc(F)c([C@H]2[C@H](NC(=O)c3ccc(Cl)cc3)C(=O)N(c3cccc(N4CC[C@@H](O)C4)n3)[C@@H]2C)c(F)c1 [Example 545],330 nM,6 nM
COc1ccc([C@@H]2CN(c3cccn(CC(O)C(F)(F)F)c3=O)C(=O)[C@H]2NC(=O)c2ccc(OC(F)F)cc2)c(F)c1 (some centres unmarked) [Example 465],13 nM,2.9 nM
COc1cc(F)c([C@@H]2CN(c3c(C)ccn(CC4CCOCC4)c3=O)C(=O)[C@H]2NC(=O)c2ccc(OC(F)F)cc2)c(F)c1 [Example 457],2 nM,3.2 nM
COc1cc(F)c([C@@H]2CN(c3c(C)c4c(n(CCO)c3=O)CCCC4)C(=O)[C@H]2NC(=O)c2ccc(OC(F)F)cc2)c(F)c1 [Example 605],1.9 nM,< 5 nM
COCCNc1ccnc(N2C[C@@H](c3c(F)cc(OC)cc3F)[C@H](NC(=O)c3ccc(Cl)cc3)C2=O)c1C(F)(F)F [Example 423],1100 nM,4.7 nM
COCCN1CCCC(N2C[C@@H](c3c(F)cc(OC)cc3F)[C@H](NC(=O)c3ccc(OC(F)(F)F)cc3)C2=O)C1=O (some centres unmarked) [Example 484],420 nM,3 nM
COc1cc(F)c([C@@H]2CN(c3nc(C4CCOCC4)ccc3N(C)C)C(=O)[C@H]2NC(=O)c2ccc(OC(F)F)cc2)c(F)c1 [Example 343],120 nM,33 nM
COCCn1ccc(C)c(N2C[C@@H](c3ccc(OC)cc3)[C@H](NC(=O)c3ccc(OC(F)F)cc3)C2=O)c1=O [Example 260],1.2 nM,7.5 nM
COc1cc(F)c([C@@H]2CN(c3c(C)ccn(C4CC4)c3=O)C(=O)[C@H]2NC(=O)c2ccc(OC(F)(F)F)cc2)c(F)c1 [Example 352],3 nM,4.8 nM
COc1cc(F)c([C@@H]2CN(c3c(C)ccn(C4CCOC4)c3=O)C(=O)[C@H]2NC(=O)c2ccc(OC(F)F)cc2)c(F)c1 (some centres unmarked) [Example 479],5 nM,9.4 nM
COc1cc(F)c([C@@H]2CN(c3nccc(NCC(C)O)c3C(F)(F)F)C(=O)[C@H]2NC(=O)c2ccc(OC(F)F)cc2)c(F)c1 (some centres unmarked) [Example 234],1100 nM,6.3 nM
COc1ccc([C@@H]2CN(c3cccn(CCC(F)(F)F)c3=O)C(=O)[C@H]2NC(=O)c2ccc(OC(F)(F)F)cc2)c(F)c1 [Example 75],2.8 nM,2 nM
CCn1cc(C)c(C)c(N2C[C@@H](c3c(F)cc(OC)cc3F)C(NC(=O)c3ccc(OC(F)(F)F)cc3)C2=O)c1=O (some centres unmarked) [Example 639],57 nM,5.8 nM
COc1cc(F)c([C@@H]2CN(c3c(C)ccn(CC4CCOC4)c3=O)C(=O)[C@H]2NC(=O)c2ccc(OC(F)F)cc2)c(F)c1 (some centres unmarked) [Example 693],2.5 nM,2 nM
COc1cc(F)c([C@@H]2CN(c3c(C)ccn(C4COC4)c3=O)C(=O)[C@H]2NC(=O)c2ccc(OC(F)(F)F)cc2)c(F)c1 [Example 637],5.7 nM,6.6 nM
COc1cc(F)c([C@@H]2CN(c3cccn4cc(C5CC5)nc34)C(=O)[C@H]2NC(=O)c2ccc(Cl)cc2)c(F)c1 [Example 495],860 nM,1.6 nM
CCn1cccc(N2C[C@@H](c3ccc(Cl)cc3)[C@H](NC(=O)c3ccc(OC(F)(F)F)cc3)C2=O)c1=O [Example 67],4.4 nM,1.8 nM
COc1cc(F)c([C@@H]2CN(c3cccn(CC(C)O)c3=O)C(=O)[C@H]2NC(=O)c2ccc(OC(F)(F)F)cc2)c(F)c1 (some centres unmarked) [Example 173],12 nM,4.5 nM
CCn1cccc(N2C[C@@H](c3c(F)cc(OC)cc3F)[C@H](NC(=O)c3cccc(OC)c3)C2=O)c1=O [Example 345],3.1 nM,89 nM
COc1ccc([C@@H]2CN(c3ccnn(CC(F)F)c3=O)C(=O)[C@H]2NC(=O)c2ccc(OC(F)F)cc2)c(F)c1 [Example 620],6.5 nM,7.4 nM
COc1cc(F)c([C@@H]2CN(c3ccnn(CCO)c3=O)C(=O)[C@H]2NC(=O)c2ccc(OC(F)(F)F)cc2)c(F)c1 [Example 356],31 nM,3.5 nM
COc1cc(F)c([C@@H]2CN(c3cccn(C(CO)C(F)(F)F)c3=O)C(=O)[C@H]2NC(=O)c2ccc(OC(F)F)cc2)c(F)c1 (some centres unmarked) [Example 583],57 nM,3.8 nM
COc1cc(F)c([C@@H]2CN(c3cccn(CC(F)(F)F)c3=O)C(=O)[C@H]2NC(=O)c2ccc(OC(F)F)cc2)c(F)c1 [Example 190],130 nM,5 nM
COc1cc(F)c([C@@H]2CN(c3c(C)ccn(CCO)c3=O)C(=O)[C@H]2NC(=O)c2ccc(OC(F)F)cc2)c(F)c1 [Example 262],18 nM,7.5 nM

Structure (SMILES),EC50 [1],EC50 [2]
COCC(CO)n1ccc(C)c(N2C[C@@H](c3c(F)cc(OC)cc3F)[C@H](NC(=O)c3ccc(OC(F)(F)F)cc3)C2=O)c1=O (some centres unmarked) [Example 427],2 nM,4.4 nM
CCn1nccc(N2C[C@@H](c3c(F)cc(OC)cc3F)[C@H](NC(=O)c3ccc(OC(F)(F)F)cc3)C2=O)c1=O [Example 357],12 nM,3.1 nM
COc1ccc([C@@H]2CN(c3c(C)ccn(C4COC4)c3=O)C(=O)[C@H]2NC(=O)c2ccc(OC(F)(F)F)cc2)cc1 [Example 578],6 nM,1.5 nM
COc1cc(F)c([C@@H]2CN(c3c(C)ccn([C@H]4COC[C@@H]4O)c3=O)C(=O)[C@H]2NC(=O)c2ccc(Cl)cc2)c(F)c1 [Example 621],64 nM,90 nM
COc1cc(F)c([C@@H]2CN(c3nccc(N4CCN(C)CC4)c3C(F)(F)F)C(=O)[C@H]2NC(=O)c2ccc(OC(F)F)cc2)c(F)c1 [Example 279],5800 nM,8.1 nM
COc1cc(F)c([C@@H]2CN(c3nc(OCC4CCOC4)ccc3F)C(=O)[C@H]2NC(=O)c2ccc(OC(F)F)cc2)c(F)c1 (some centres unmarked) [Example 535],200 nM,1 nM
COCC(C(=O)N(C)C)n1cccc(N2C[C@@H](c3ccc(Cl)cc3)[C@H](NC(=O)c3ccc(OC(F)F)cc3)C2=O)c1=O (some centres unmarked) [Example 317],2.6 nM,10 nM
COc1cc(F)c([C@@H]2CN(c3c(C)ccn(CC4CC4)c3=O)C(=O)[C@H]2NC(=O)c2ccc(OC(F)(F)F)cc2)c(F)c1 [Example 151],0.5 nM,3.9 nM
COCC(CO)n1cccc(N2C[C@@H](c3ccc(OC)cc3)[C@H](NC(=O)c3ccc(OC(F)F)cc3)C2=O)c1=O (some centres unmarked) [Example 252],44 nM,7 nM
COc1ccc([C@@H]2CN(c3cccn(CC(C)OC)c3=O)C(=O)[C@H]2NC(=O)c2ccc(OC(F)(F)F)cc2)cc1 (some centres unmarked) [Example 405],2 nM,4.7 nM
COc1cc(F)c([C@@H]2CN(c3cccnc3P(C)(C)=O)C(=O)[C@H]2NC(=O)c2ccc(Cl)cc2)c(F)c1 [Example 305],1300 nM,9.6 nM
COc1cc(C2CCN(CC(F)(F)F)CC2)nc(N2C(=O)[C@@H](NC(=O)c3ccc(OC(F)F)cc3)[C@H](c3c(F)cc(OC)cc3F)[C@@H]2C)c1 [Example 548],> 5000 nM,280 nM
COCCOc1ncccc1N1C[C@@H](c2c(F)cc(OC)cc2F)[C@H](NC(=O)c2ccc(Cl)cc2)C1=O [Example 413],120 nM,0.6 nM
COc1ccc([C@@H]2CN(c3c(C)ccn(CC4CC4)c3=O)C(=O)[C@H]2NC(=O)c2ccc(OC(F)F)cc2)c(F)c1 [Example 192],0.8 nM,5.1 nM
COCC(CO)n1cccc(N2C[C@@H](c3ccc(OC)cc3F)[C@H](NC(=O)c3ccc(OC(F)F)cc3)C2=O)c1=O (some centres unmarked) [Example 438],7 nM,3.9 nM
COc1cc(F)c([C@@H]2CN(c3nc(N4C[C@@H](C)N(C)[C@@H](C)C4)ccc3F)C(=O)[C@H]2NC(=O)c2ccc(OC(F)F)cc2)c(F)c1 [Example 42],730 nM,0.7 nM
O=C(N[C@@H]1C(=O)N(c2cccn(CC(O)C(F)(F)F)c2=O)C[C@H]1c1ccc(Cl)cc1)c1ccc(OC(F)F)cc1 (some centres unmarked) [Example 368],86 nM,1.7 nM
CCN1CCC(N2C[C@@H](c3c(F)cc(OC)cc3F)[C@H](NC(=O)c3ccc(OC(F)(F)F)cc3)C2=O)C1=O (some centres unmarked) [Example 372],17 nM,2.8 nM
COc1cc(F)c([C@@H]2CN(c3cccn(C4CC4)c3=O)C(=O)[C@H]2NC(=O)c2ccc(C(F)(F)F)cc2)c(F)c1 [Example 116],34 nM,3.1 nM
COc1cc(F)c([C@@H]2CN(c3cccc(C4CCCN(CCO)C4)n3)C(=O)[C@H]2NC(=O)c2ccc(OC(F)F)cc2)c(F)c1 (some centres unmarked) [Example 501],2500 nM,1.6 nM
COc1cc(F)c([C@@H]2CN(c3cc(Cl)cc(C(F)(F)F)c3)C(=O)[C@H]2NC(=O)c2ccc(OC(F)F)cc2)c(F)c1 [Example 12],> 10000 nM,91 nM
COc1cc(F)c([C@@H]2CN(c3c(C)ccn(C4CCNC4)c3=O)C(=O)[C@H]2NC(=O)c2ccc(OC(F)F)cc2)c(F)c1 (some centres unmarked) [Example 612],33 nM,13.5 nM
COc1cc(F)c([C@@H]2CN(c3c(C)ccn(C4CCOC4)c3=O)C(=O)[C@H]2NC(=O)c2ccc(Cl)cc2)c(F)c1 (some centres unmarked) [Example 654],12 nM,1 nM
COc1cc(F)c([C@@H]2CN(c3ncccc3P(C)(C)=O)C(=O)[C@H]2NC(=O)c2ccc(OC(F)(F)F)cc2)c(F)c1 [Example 22],3200 nM,13 nM
